Test results from patent US20250312352A1, “GLP-1R MODULATING COMPOUNDS” (Gilead Sciences, Inc., priority 2021, published 2025).

Biological target: T1, GLP-1R (Homo sapiens, UniProt P43220)
T1 construct: host or cells: CHO cells
Assay: GLP-1R activation cAMP assay (Assay 1 or Assay 2)
Assay type: cell-based
Conditions: cAMP increase in CHO cells stably expressing GLP-1R; compounds run on one of the two cAMP assays
Summary of the method: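 CHO cells stably expressing human GLP-1R were incubated 1 h in HBSS/20 mM HEPES/0.1% BSA, then exposed to 10-point agonist dilutions for 30 min at 37 °C. cAMP increase was measured with an HTRF Gs dynamic kit; EC50 from sigmoidal fit of response versus log concentration.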

T1 sequence (P43220 24-463): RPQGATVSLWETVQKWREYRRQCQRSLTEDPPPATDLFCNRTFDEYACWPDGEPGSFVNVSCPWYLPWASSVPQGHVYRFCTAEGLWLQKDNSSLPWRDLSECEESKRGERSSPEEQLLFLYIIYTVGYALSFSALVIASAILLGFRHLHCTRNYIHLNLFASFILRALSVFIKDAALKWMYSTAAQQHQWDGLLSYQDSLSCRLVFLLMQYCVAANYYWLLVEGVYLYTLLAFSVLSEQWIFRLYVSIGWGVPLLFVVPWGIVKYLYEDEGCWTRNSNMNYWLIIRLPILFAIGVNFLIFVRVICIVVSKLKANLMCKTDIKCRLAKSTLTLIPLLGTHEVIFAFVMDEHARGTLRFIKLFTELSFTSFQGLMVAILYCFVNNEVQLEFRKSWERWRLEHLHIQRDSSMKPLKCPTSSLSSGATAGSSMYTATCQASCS

Q: NC(=O)c1ccc(COc2nccc(-c3cc(F)c(Cc4nc5ccc(C(=O)O)cc5n4C[C@@H]4CCO4)cc3F)n2)cn1 [Example 222, (S)-2-(4-(2-((6-carbamoylpyridin-3-yl)methoxy)pyrimidin-4-yl)-2,5-difluorobenzyl)-1-(oxetan-2-ylmethyl)-1H-benzo[d]imidazole-6-carboxylic acid] was tested. Which EC50 did it give?
A: 3.59 nM

Q: How did the EC50 turn out when NC(=O)c1ccc(COc2nccc(-c3cc(F)c(Cc4nc5ccc(C(=O)O)cc5n4C[C@@H]4CCO4)cc3F)n2)c(OC(F)F)n1 [Example 223, (S)-2-(4-(2-((6-carbamoyl-2-(difluoromethoxy)pyridin-3-yl)methoxy)pyrimidin-4-yl)-2,5-difluorobenzyl)-1-(oxetan-2-ylmethyl)-1H-benzo[d]imidazole-6-carboxylic acid] was run?
A: 0.51 nM

Q: Which EC50 does the source give for CO[C@H](C)Cn1c(Cc2cc(F)c(-c3cccc(OCc4ncc(-c5cnn(C)c5)s4)n3)cc2F)nc2ccc(C(=O)O)cc21 [Example 224, 2-[[2,5-difluoro-4-[6-[[5-(1-methylpyrazol-4-yl)thiazol-2-yl]methoxy]-2-pyridyl]phenyl]methyl]-3-[(2R)-2-methoxypropyl]benzimidazole-5-carboxylic acid] here?
A: 1.11 nM

Q: For COCCn1c(Cc2cc(F)c(-c3cccc(OCc4ccc(-c5cnn(C6CC6)c5)cc4F)n3)cc2F)nc2ccc(C(=O)O)cc21 [Example 225, 2-(4-(6-((4-(1-cyclopropyl-1H-pyrazol-4-yl)-2-fluorobenzyl)oxy)pyridin-2-yl)-2,5-difluorobenzyl)-1-(2-methoxyethyl)-1H-benzo[d]imidazole-6-carboxylic acid], which EC50 is on record?
A: 0.7 nM

Q: Which EC50 does the source give for COCCn1c(Cc2cc(F)c(-c3cccc(OCc4ccc(-c5cnn(C6CCOCC6)c5)cc4F)n3)cc2F)nc2ccc(C(=O)O)cc21 [Example 226, 2-(2,5-difluoro-4-(6-((2-fluoro-4-(1-(tetrahydro-2H-pyran-4-yl)-1H-pyrazol-4-yl)benzyl)oxy)pyridin-2-yl)benzyl)-1-(2-methoxyethyl)-1H-benzo[d]imidazole-6-carboxylic acid] here?
A: 8.36 nM

Q: With COCCn1c(Cc2cc(F)c(-c3cccc(OCc4ccc(-c5cnn(CCN6CCOCC6)c5)cc4F)n3)cc2F)nc2ccc(C(=O)O)cc21 [Example 227, 2-(2,5-difluoro-4-(6-((2-fluoro-4-(1-(2-morpholinoethyl)-1H-pyrazol-4-yl)benzyl)oxy)pyridin-2-yl)benzyl)-1-(2-methoxyethyl)-1H-benzo[d]imidazole-6-carboxylic acid] as the compound, how does the EC50 read?
A: 3.45 nM

Q: How did the EC50 turn out when COCCn1c(Cc2cc(F)c(-c3cccc(OCc4ccc(-c5ccc(N6CCCC6)nc5)cc4F)n3)cc2F)nc2ccc(C(=O)O)cc21 [Example 228, 2-(2,5-difluoro-4-(6-((2-fluoro-4-(6-(pyrrolidin-1-yl)pyridin-3-yl)benzyl)oxy)pyridin-2-yl)benzyl)-1-(2-methoxyethyl)-1H-benzo[d]imidazole-6-carboxylic acid] was run?
A: 26 nM

Q: Which EC50 does the source give for COCCn1c(Cc2cc(F)c(-c3cccc(OCc4ccc(-c5cnn(C6CCNCC6)c5)nc4)n3)cc2F)nc2ccc(C(=O)O)cc21 [Example 229, 2-(2,5-difluoro-4-(6-((6-(1-(piperidin-4-yl)-1H-pyrazol-4-yl)pyridin-3-yl)methoxy)pyridin-2-yl)benzyl)-1-(2-methoxyethyl)-1H-benzo[d]imidazole-6-carboxylic acid] here?
A: 17.9 nM

Q: How did the EC50 turn out when Cn1ncc2cc(COc3cccc(-c4cc(F)c(Cc5nc6ccc(C(=O)O)cc6n5C[C@@H]5CCO5)cc4F)n3)sc21 [Example 230, 2-[[2,5-difluoro-4-[6-[(1-methylthieno[2,3-c]pyrazol-5-yl)methoxy]-2-pyridyl]phenyl]methyl]-3-[[(2S)-oxetan-2-yl]methyl]benzimidazole-5-carboxylic acid] was run?
A: 0.33 nM

Q: Which EC50 does the source give for COCCn1c(Cc2cc(F)c(-c3cccc(OCc4ccc(C#CC5COC5)cc4F)n3)cc2F)nc2ccc(C(=O)O)cc21 [Example 231, 2-[[2,5-difluoro-4-[6-[[2-fluoro-4-[2-(oxetan-3-yl)ethynyl]phenyl]methoxy]-2-pyridyl]phenyl]methyl]-3-(2-methoxyethyl)benzimidazole-5-carboxylic acid] here?
A: 1.51 nM

Q: How did the EC50 turn out when COCCn1c(Cc2cc(F)c(-c3cccc(OCc4ccc(C#CC5CNC5)cc4F)n3)cc2F)nc2ccc(C(=O)O)cc21 [Example 232, 2-(4-(6-((4-(azetidin-3-ylethynyl)-2-fluorobenzyl)oxy)pyridin-2-yl)-2,5-difluorobenzyl)-1-(2-methoxyethyl)-1H-benzo[d]imidazole-6-carboxylic acid] was run?
A: 5.65 nM

Q: For COCCn1c(Cc2cc(F)c(-c3cccc(OCc4ccc(C#Cc5cncn5C)cc4F)n3)cc2F)nc2ccc(C(=O)O)cc21 [Example 233, 2-(2,5-difluoro-4-(6-((2-fluoro-4-((1-methyl-1H-imidazol-5-yl)ethynyl)benzyl)oxy)pyridin-2-yl)benzyl)-1-(2-methoxyethyl)-1H-benzo[d]imidazole-6-carboxylic acid], which EC50 is on record?
A: 1.2 nM

Q: COCCn1c(Cc2cc(F)c(-c3cccc(OCc4ccc(C#CC5CN(C)C5)cc4F)n3)cc2F)nc2ccc(C(=O)O)cc21 [Example 234, 2-[[2,5-difluoro-4-[6-[[2-fluoro-4-[2-(1-methylazetidin-3-yl)ethynyl]phenyl]methoxy]-2-pyridyl]phenyl]methyl]-3-(2-methoxyethyl)benzimidazole-5-carboxylic acid] was tested. Which EC50 did it give?
A: 5.9 nM

Q: Which EC50 does the source give for COCCn1c(Cc2cc(F)c(-c3cccc(OCc4ccc(C#CC5CN(C(=O)OC)C5)cc4F)n3)cc2F)nc2ccc(C(=O)O)cc21 [Example 235, 2-[[2,5-difluoro-4-[6-[[2-fluoro-4-[2-(1-methoxycarbonylazetidin-3-yl)ethynyl]phenyl]methoxy]-2-pyridyl]phenyl]methyl]-3-(2-methoxyethyl)benzimidazole-5-carboxylic acid] here?
A: 1.1 nM

Q: Which EC50 does the source give for O=C(O)c1ccc2nc(Cc3cc(F)c(-c4cccc(OCc5cnc(-c6cn(C7COC7)nn6)cc5F)n4)cc3F)n(C[C@@H]3CCO3)c2c1 [Example 236, 2-[[2,5-difluoro-4-[6-[[4-fluoro-6-[1-(oxetan-3-yl)triazol-4-yl]-3-pyridyl]methoxy]-2-pyridyl]phenyl]methyl]-3-[[(2S)-oxetan-2-yl]methyl]benzimidazole-5-carboxylic acid] here?
A: 0.22 nM

Q: Which EC50 does the source give for COCCn1c(Cc2cc(F)c(-c3cccc(OCc4ccc(-c5cnn(Cc6cccnc6)c5)cc4F)n3)cc2F)nc2ccc(C(=O)O)cc21 [Example 237, 2-[[2,5-difluoro-4-[6-[[2-fluoro-4-[1-(3-pyridylmethyl)pyrazol-4-yl]phenyl]methoxy]-2-pyridyl]phenyl]methyl]-3-(2-methoxyethyl)benzimidazole-5-carboxylic acid] here?
A: 3.68 nM

Q: How did the EC50 turn out when N#CCn1ccc(COc2cccc(-c3cc(F)c(Cc4nc5ccc(C(=O)O)cc5n4C[C@@H]4CCO4)cc3F)n2)n1 [Example 238, 2-[[4-[6-[[1-(cyanomethyl)pyrazol-3-yl]methoxy]-2-pyridyl]-2,5-difluoro-phenyl]methyl]-3-[[(2S)-oxetan-2-yl]methyl]benzimidazole-5-carboxylic acid] was run?
A: 8.61 nM

Q: With N#CCn1nccc1COc1cccc(-c2cc(F)c(Cc3nc4ccc(C(=O)O)cc4n3C[C@@H]3CCO3)cc2F)n1 [Example 239, (S)-2-(4-(6-((1-(cyanomethyl)-1H-pyrazol-5-yl)methoxy)pyridin-2-yl)-2,5-difluorobenzyl)-1-(oxetan-2-ylmethyl)-1H-benzo[d]imidazole-6-carboxylic acid] as the compound, how does the EC50 read?
A: 447 nM

Q: Which EC50 does the source give for NC(=O)c1ccc(COc2cccc(-c3cc(F)c(Cc4nc5ccc(C(=O)O)cc5n4C[C@@H]4CCO4)cc3F)n2)c(F)n1 [Example 240, 2-[[4-[6-[(6-carbamoyl-2-fluoro-3-pyridyl)methoxy]-2-pyridyl]-2,5-difluoro-phenyl]methyl]-3-[[(2S)-oxetan-2-yl]methyl]benzimidazole-5-carboxylic acid] here?
A: 1.13 nM

Q: How did the EC50 turn out when NC(=O)c1cc(F)c(COc2cccc(-c3cc(F)c(Cc4nc5c(F)cc(C(=O)O)cc5n4C[C@@H]4CCO4)cc3F)n2)cn1 [Example 241, (S)-2-(4-(6-((6-carbamoyl-4-fluoropyridin-3-yl)methoxy)pyridin-2-yl)-2,5-difluorobenzyl)-4-fluoro-1-(oxetan-2-ylmethyl)-1H-benzo[d]imidazole-6-carboxylic acid] was run?
A: 0.12 nM

Q: Which EC50 does the source give for COc1cc(C(N)=O)ncc1COc1cccc(-c2cc(F)c(Cc3nc4ccc(C(=O)O)cc4n3C[C@@H]3CCO3)cc2F)n1 [Example 242, (S)-2-(4-(6-((6-carbamoyl-4-methoxypyridin-3-yl)methoxy)pyridin-2-yl)-2,5-difluorobenzyl)-1-(oxetan-2-ylmethyl)-1H-benzo[d]imidazole-6-carboxylic acid] here?
A: 0.02 nM

Q: CNC(=O)c1cc(F)c(COc2cccc(-c3cc(F)c(Cc4nc5ccc(C(=O)O)cc5n4C[C@@H]4CCO4)cc3F)n2)cn1 [Example 243, 2-[[2,5-difluoro-4-[6-[[4-fluoro-6-(methylcarbamoyl)-3-pyridyl]methoxy]-2-pyridyl]phenyl]methyl]-3-[[(2S)-oxetan-2-yl]methyl]benzimidazole-5-carboxylic acid] was tested. Which EC50 did it give?
A: 0.17 nM

Q: Which EC50 does the source give for O=C(O)c1ccc2nc(Cc3cc(F)c(-c4cccc(OCc5cnc(C(=O)NC6CCCC6)cc5F)n4)cc3F)n(C[C@@H]3CCO3)c2c1 [Example 244, (S)-2-(4-(6-((6-(cyclopentylcarbamoyl)-4-fluoropyridin-3-yl)methoxy)pyridin-2-yl)-2,5-difluorobenzyl)-1-(oxetan-2-ylmethyl)-1H-benzo[d]imidazole-6-carboxylic acid] here?
A: 2.28 nM

Q: With O=C(O)c1ccc2nc(Cc3cc(F)c(-c4cccc(OCc5cnc(C(=O)NC6CC6)cc5F)n4)cc3F)n(C[C@@H]3CCO3)c2c1 [Example 245, (S)-2-(4-(6-((6-(cyclopropylcarbamoyl)-4-fluoropyridin-3-yl)methoxy)pyridin-2-yl)-2,5-difluorobenzyl)-1-(oxetan-2-ylmethyl)-1H-benzo[d]imidazole-6-carboxylic acid] as the compound, how does the EC50 read?
A: 0.1 nM
